Data from article PMC5771238 (Neuropharmacology, 2017).
Where two headings read alike, the source gives them in different places.

Key:
C57/Bl6J mice = test: THC drug discrimination; type: in vivo, mouse; settings: for effect on response rates / substitution for THC when administered alone / effect on THC's discriminative stimulus effects: second group; for effect on THC's discriminative stimulus effects: modulators 10 mg/kg, rimonabant 1 mg/kg with 5.6 mg/kg THC
CB1 receptor [1] = target: T1, CB1 receptor (Mus musculus, UniProt P47746)
T1 sequence (P47746 whole entry): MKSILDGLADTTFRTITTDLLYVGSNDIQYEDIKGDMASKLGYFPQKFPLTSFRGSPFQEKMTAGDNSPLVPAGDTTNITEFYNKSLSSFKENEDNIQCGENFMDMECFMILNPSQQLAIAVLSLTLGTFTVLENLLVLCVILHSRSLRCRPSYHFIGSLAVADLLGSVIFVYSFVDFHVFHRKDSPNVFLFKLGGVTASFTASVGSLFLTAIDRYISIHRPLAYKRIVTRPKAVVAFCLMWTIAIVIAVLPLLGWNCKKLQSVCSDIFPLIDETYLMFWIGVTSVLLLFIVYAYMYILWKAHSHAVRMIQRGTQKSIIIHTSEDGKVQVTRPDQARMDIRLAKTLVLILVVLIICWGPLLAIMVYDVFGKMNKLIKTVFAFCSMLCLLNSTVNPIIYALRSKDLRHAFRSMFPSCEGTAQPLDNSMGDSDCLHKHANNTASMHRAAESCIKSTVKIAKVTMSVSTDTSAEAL

CB1 receptor [2] = target: T1, CB1 receptor; test: THC-stimulated [35S]GTPγS binding in mouse cerebellar membranes; type: biochemical; settings: pregnenolone 1 – 10 μM
ICR mice = test: Cannabinoid tetrad tests; type: in vivo, mouse; settings: for effect on THC's effects on activity, hypothermia, catalepsy / effect on THC's anti-nociceptive effect: 10 mg/kg modulator i.p. 10 min before 30 mg/kg THC; for effect on THC's anti-nociceptive effect: tail flick
CB1 receptor [3] = target: T1, CB1 receptor; test: CP55,940-stimulated [35S]GTPγS binding in mouse cerebellar membranes; type: biochemical; settings: for alpha ± SEM (binding cooperativity with CP55,940) / beta ± SEM (efficacy modifier): allosteric operational model, logKA=−6.6, Emax=100, TA=14, TB=0, n=1, LogKB from [3H]SR141716 binding
CB1 receptor [4] = target: T1, CB1 receptor; test: [3H]CP55,940 specific binding
mice = test: Feeding in mice; type: in vivo, mouse; settings: 30 mg/kg; unpublished results
CB1 receptor [5] = target: T1, CB1 receptor; test: biochemical; settings: pKB ± SEM
[6] = 1 nM [3H]SR141716, allosteric ternary complex model, no GDP
[7] = 3 parameter non-linear regression

Question: How did the “effect on response rates” value (C57/Bl6J mice) turn out when `CCNC1(C(N)=O)CCN(c2ncnc3c2nc(-c2ccccc2Cl)n3-c2ccc(Cl)cc2)CC1` [otenabant] was run?
Answer: The value was “significantly decreased response rates”.

Question: And the “substitution for THC when administered alone” value (C57/Bl6J mice)?
Answer: Its value is “without substituting themselves when administered alone”.

Question: And the “effect on THC's discriminative stimulus effects” value (C57/Bl6J mice)?
Answer: Its value is “blocked THC’s discriminative stimulus effects”.

Question: What does the source list for `N#Cc1ccc(NC(=O)Nc2cccc(-c3cccc(N4CCCC4)n3)c2)cc1` [RTICBM-28]?
Answer: logα ± SEM (cooperativity with [3H]SR141716) (CB1 receptor [1]; [6]): −1.13 ± 0.18; pKB ± SEM (CB1 receptor [1]; [6]): 6.65 ± 0.11; pKB ± SEM (CB1 receptor [1]; in presence of 30 μM GDP): 5.86 ± 0.10; effect on THC-stimulated [35S]GTPγS binding (CB1 receptor [2]): produced insurmountable antagonism; effect on response rates (C57/Bl6J mice): Neither compound decreased response rates; effect on THC's discriminative stimulus effects (C57/Bl6J mice): lowered THC potency; effect on THC's effects on activity, hypothermia, catalepsy (ICR mice): did not alter; effect on THC's anti-nociceptive effect (ICR mice): but not RTICBM-15 or RTICBM-28, decreased THC’s anti-nociceptive effect; pIC50 ± SEM (CB1 receptor [3]; CP55,940 10 nM): 7.34 ± 0.05; pIC50 ± SEM (CB1 receptor [3]; CP55,940 1 μM): 7.72 ± 0.03; pIC50 ± SEM (CB1 receptor [3]; CP55,940 10 μM): 7.59 ± 0.03; alpha ± SEM (binding cooperativity with CP55,940) (CB1 receptor [3]): 201.1 ± 11.95; beta ± SEM (efficacy modifier) (CB1 receptor [3]): 0.001 ± 0.001; Top ± SEM (maximal increase in specific binding of [3H]CP55,940) (CB1 receptor [4]; [7]): 477.5 ± 15.14; pEC50 ± SEM for increase in specific binding of [3H]CP55,940 (CB1 receptor [4]; [7]): 6.61 ± 0.07

Question: Which “effect on locomotor activity” value (ICR mice; THC 30 mg/kg i.p. with vehicle) does the source give for `CCCCCc1cc(O)c2c(c1)OC(C)(C)[C@@H]1CCC(C)=C[C@@H]21` [THC, delta-9-tetrahydrocannabinol] here?
Answer: Its value is “did not affect locomotor activity”.

Question: And the “tetrad effects: antinociception, hypothermia, catalepsy” value (ICR mice; THC 30 mg/kg i.p. with vehicle)?
Answer: Its value is “produced rimonabant-reversible antinociception (Figure 4B), hypothermia (Figure 4C), and catalepsy (Figure 4D)”.

Question: Which results are given for `Cc1c(C(=O)NN2CCCCC2)nn(-c2ccc(Cl)cc2Cl)c1-c1ccc(Cl)cc1` [SR141716, rimonabant]?
Answer: effect on response rates (C57/Bl6J mice): significantly decreased response rates; substitution for THC when administered alone (C57/Bl6J mice): without substituting themselves when administered alone; effect on THC's discriminative stimulus effects (C57/Bl6J mice): blocked THC’s discriminative stimulus effects; effect on locomotor activity in combination with THC (ICR mice; 3 mg/kg rimonabant and 30 mg/kg THC): increased activity; reversal of THC-induced antinociception, hypothermia, catalepsy (ICR mice; 3 mg/kg rimonabant i.p. before 30 mg/kg THC): rimonabant-reversible; effect on locomotor activity, anti-nociception, rectal temperature, catalepsy when followed by vehicle injection (ICR mice; 10 mg/kg modulator or 3 mg/kg rimonabant i.p., vs vehicle/vehicle): did not have any effect

Question: `O=C(Nc1ccc(Cl)cc1)Nc1cccc(-c2cccc(N3CCCC3)n2)c1` [PSNCBAM-1, 1-(4-chlorophenyl)-3-{3-[6-(pyrrolidin-1-yl)pyridin-2-yl]phenyl}urea] was tested. Which “logα ± SEM (cooperativity with [3H]SR141716)” value (CB1 receptor [1]; [6]) did it give?
Answer: Its value is −0.73 ± 0.12.

Question: What about the “effect on feeding in mice” value (mice) of the same compound?
Answer: The value was “did not observe an effect”.

Question: And the Kb (CB1 receptor [5]; [6])?
Answer: Its Kb is 195 nM.

Question: What about the Kb (CB1 receptor [5]; in presence of 30 μM GDP) of the same compound?
Answer: Its Kb is 1820 nM.

Question: And the “effect on THC-stimulated [35S]GTPγS binding” value (CB1 receptor [2])?
Answer: Its value is “produced insurmountable antagonism”.

Question: And the “effect on response rates” value (C57/Bl6J mice)?
Answer: Its value is “Neither compound decreased response rates”.

Question: And the “effect on THC's discriminative stimulus effects” value (C57/Bl6J mice)?
Answer: Its value is “did not alter THC’s discriminative stimulus effects”.

Question: And the “effect on THC's effects on activity, hypothermia, catalepsy” value (ICR mice)?
Answer: Its value is “did not alter”.

Question: What about the “effect on THC's anti-nociceptive effect” value (ICR mice) of the same compound?
Answer: Its value is “decreased THC’s anti-nociceptive effect”.

Question: What about the IC50 (CB1 receptor [3]; IC50, at 100 nM CP55,940) of the same compound?
Answer: Its IC50 is 49.2 nM.

Question: What about the “alpha ± SEM (binding cooperativity with CP55,940)” value (CB1 receptor [3]) of the same compound?
Answer: The value was 55.01 ± 3.76.

Question: What about the “beta ± SEM (efficacy modifier)” value (CB1 receptor [3]) of the same compound?
Answer: The value was 0.003 ± 0.001.

Question: And the IC50 (CB1 receptor [3]; pIC50 ± SEM, CP55,940 10 nM)?
Answer: The IC50 was 83.2 nM.

Question: And the IC50 (CB1 receptor [3]; pIC50 ± SEM, CP55,940 1 μM)?
Answer: The IC50 was 39.8 nM.

Question: What about the IC50 (CB1 receptor [3]; pIC50 ± SEM, CP55,940 10 μM) of the same compound?
Answer: Its IC50 is 50.1 nM.

Question: What about the EC50 (CB1 receptor [4]) of the same compound?
Answer: Its EC50 is 295 nM.

Question: And the “Top ± SEM (maximal increase in specific binding of [3H]CP55,940)” value (CB1 receptor [4]; [7])?
Answer: The value was 419.1 ± 8.75.

Question: What does the source list for `CC(=O)[C@H]1CC[C@H]2[C@@H]3CC=C4C[C@@H](O)CC[C@]4(C)[C@H]3CC[C@]12C` [pregnenolone]?
Answer: substitution and response rate effects in combination with vehicle (C57/Bl6J mice; first group, compound alone): neither compound produced substitution or response rate effects; effect on THC's effects in the cannabinoid tetrad (ICR mice; stated in abstract only): did not block THC’s effects
